Test results as given in US20210236784A1, “DEVICE FOR ORAL DELIVERY OF ACTIVE AGENTS” (Entrega Inc., priority 2015, published 2021).

Test: Surgical Bioavailability Assay
Format: in vivo
Details: pig; octreotide; porcine surgical model, device/dosage form placed in the intestine (jejunum, ileum); from active agent levels in blood samples; FIG. 23
Method: To determine bioavailability, mucoadhesive devices according to aspects of the present disclosure, as well as comparative dosage forms, are tested by a surgical model (Surgical Bioavailability Assay).
Surgical Bioavailability Assay. In the Surgical Bioavailability Assay, a porcine model is used, in which the animals undergo open surgery such that devices and/or dosage forms to be tested can be placed at regions of the intestine of interest, such as the jejunum and ileum. After administration of anesthesia, a ventral midline incision is made to gain access to the animal's abdominal cavity. The jejunum and ileum are exposed, and incisions are made to manually place the devices and/or dosage forms being tested. After placement of the device and/or dosage form is complete, the intestinal incisions are closed, and the midline incision can also be temporarily closed. Also, access can be made for blood collection via the carotid artery or jugular vein. The animal can be kept under anesthesia for up to 4 hours to allow for blood collection, such as at 5 mins, 15 mins, 30 mins, 60 mins, 90 mins, and 2 hours after oral dosage form placement. Blood samples can also be collected prior to the surgical procedure. The percent bioavailability of the active agent provided with the devices and/or dosage forms is determined on the basis of the active agent levels detected in these blood samples. […]

C[C@@H](O)[C@@H]1NC(=O)[C@H](CCCCN)NC(=O)[C@@H](Cc2c[nH]c3ccccc23)NC(=O)[C@H](Cc2ccccc2)NC(=O)[C@@H](NC(=O)[C@H](N)Cc2ccccc2)CSSC[C@@H](C(=O)N[C@H](CO)[C@@H](C)O)NC1=O [octreotide solution, octreotide]
bioavailability: ~1%
